According to PMC10766984, “Josephin domain containing 2 (JOSD2) promotes lung cancer by inhibiting LKB1 (Liver kinase B1) activity” (Signal Transduction and Targeted Therapy, 2024):
Where a name gives a salt, the structure may show the parent alone.

Key:
GST-JOSD2 = target: T1, GST-JOSD2 (Homo sapiens, UniProt Q8TAC2); details: for JOSD2 Activity Inhibition (%): compound concentration 2 μM, JOSD2 inhibitor screening, related to Fig. 7a; for inhibition at 2 µM: read-out: JOSD2 Activity Inhibition (%); for JOSD2 activity inhibition ratio: 2 μM compound incubated with GST-JOSD2 at 37 °C for 30 min
T1 sequence (Q8TAC2 1-188): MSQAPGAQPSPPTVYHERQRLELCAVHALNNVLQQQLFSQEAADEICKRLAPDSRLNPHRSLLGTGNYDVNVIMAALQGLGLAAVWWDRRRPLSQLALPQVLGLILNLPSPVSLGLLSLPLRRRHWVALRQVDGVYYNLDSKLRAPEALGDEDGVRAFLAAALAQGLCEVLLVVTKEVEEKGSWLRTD

LKB1-WT NSCLC cell lines = experiment: Proliferation assay, panel of LKB1-WT cell lines; format: cell-based; details: indicated concentrations, 72 h
Method: The indicated cell lines were treated with indicated compounds at a series of concentrations for 72 h, followed by cell proliferation assay and colony formation assay. Black dashed line indicates 50% of cell survival.
For cell proliferation assay, cells infected with lentiviruses packaged indicated plasmids were seeded indicated number cells per well in 96-well plates. Cell number (absorbance) was then estimated by the sulforhodamine B (SRB) (Sigma-Aldrich, #230162) assay and the absorbance of the individual wells was determined at the optical density of 515 nm. For colony formation assay, cells infected with lentiviruses packaged indicated plasmids were seeded indicated number cells per well in 6-well plates. Two weeks later, cells were stained with SRB and the numbers of colonies having more than 50 cells were counted.

PDX LUAD 083120 (Case 2) = experiment: Patient-derived xenograft study, intratumor JOSD2 shRNA; format: in vivo, BALB/c-Nude mice
Method: (§1) PDXs were established in our lab using female BALB/c-Nude mice (4-5 weeks) implanted with tumor tissues from patients undergoing surgeries. […] Once tumors reached approximately 50 mm^3 in volume, mice were randomly assigned to scramble control or JOSD2 shRNA intra-tumor injection treatment. For the intratumor injection, a mice received an intratumorally injection of 5 ×10^6 lentiviruses in 20 μL sterile saline solution every two days.

PDX LUAD 110519 (Case 1) = experiment: as above; format: in vivo, BALB/c-Nude mice
Method: as §1

Molecule | JOSD2 Activity Inhibition (%) (GST-JOSD2) | inhibition at 2 µM (GST-JOSD2) [%] | further results
CN1C2=CC(=O)/C(=N\NC(N)=O)C=C2CC1S(=O)(=O)[O-].[Na+] (stereo not drawn) [AC-17 (Carbazochrome sodium sulfonate)] | 9.85 | – | –
CC(=O)OCC(=O)[C@@]12OC3(CCCC3)O[C@@H]1C[C@H]1[C@@H]3CCC4=CC(=O)C=C[C@]4(C)[C@@]3(F)[C@@H](O)C[C@@]12C [Amcinonide] | – | -19.2 | –
Cl.N=C(N)NN [Aminoguanidine hydrochloride] | -35.00 | – | –
CCOC(=O)C1=C(COCCN)NC(C)=C(C(=O)OC)C1c1ccccc1Cl (stereo not drawn) [Amlodipine Besylate] | – | -24.3 | –
CCCCC(=O)O[C@]1(C(=O)CO)[C@@H](C)C[C@H]2[C@@H]3CCC4=CC(=O)C=C[C@]4(C)[C@@]3(F)[C@@H](O)C[C@@]21C [Betamethasone 17-valerate] | – | -26 | –
C[C@]12CCC(=O)C=C1C=C[C@@H]1[C@@H]2CC[C@@]2(C)[C@H]1CC[C@@]21CCC(=O)O1 [Canrenone] | – | -22.3 | –
COc1cc(CNC(=O)CCCC/C=C/C(C)C)ccc1O [Capsaicin] | – | 1.77 | –
COC(=O)[C@H](c1ccccc1Cl)N1CCc2sccc2C1 [Clopidogrel sulfate] | – | -15 | –
CCO/N=C1\c2ccccc2-c2nc(C#N)c(C#N)nc21 [DUBs-IN-2] | 5.01 | – | –
C=CCO/N=C1\c2ccccc2-c2nc(C#N)c(C#N)nc21 [DUBs-IN-3] | 14.15 | – | –
CC1(C)[C@@H](O[C@H]2O[C@H](C(=O)O)[C@@H](O)[C@H](O)[C@H]2O[C@@H]2O[C@H](C(=O)O)[C@@H](O)[C@H](O)[C@H]2O)CC[C@]2(C)[C@H]3C(=O)C=C4[C@@H]5C[C@@](C)(C(=O)O)CC[C@]5(C)CC[C@@]4(C)[C@]3(C)CC[C@@H]12.N.N [Diammonium Glycyrrhizinate] | -22.76 | – | –
CCCC(NC(=O)/C(C#N)=C/c1nc(Cl)ccc1Cl)c1ccc(OCCN2CCOCC2)cc1 (stereo not drawn) [EOAI3402143] | 29.05 | – | –
CN1C[C@H](C(=O)N[C@]2(C)O[C@@]3(O)[C@@H]4CCCN4C(=O)[C@H](Cc4ccccc4)N3C2=O)C=C2c3cccc4[nH]cc(c34)C[C@H]21 [Ergotamine bitartrate] | – | -5.18 | –
O=S(=O)(O)c1cc(O)ccc1O [Etamsylate] | – | -21.4 | –
CCc1c(-c2ccc3[nH]ncc3c2)cnc(N)c1-c1ccc(O)cc1 [GNE-6640] | 12.54 | – | –
CC(C)(Sc1ccc(CCN(CCCCC2CCCCC2)C(=O)NC2CCCCC2)cc1)C(=O)O [GW7647] | – | -29.7 | –
O=C1C=CC(=O)c2c1nnn2Cc1cc(F)cc(Cl)c1 [HY032801] | – | -0.98 | Cell viability / cell proliferation (LKB1-WT NSCLC cell lines): failed to inhibit cell proliferation; JOSD2 activity inhibition ratio (GST-JOSD2): −0.98%
O=C(c1ccc(F)cc1)C1CCN(CCn2c(=O)[nH]c3ccccc3c2=O)CC1 [Ketaneserin] | -29.69 | – | –
CC(=O)O/N=C1\C(=O)N(Cc2cc(Cl)ccc2Cl)c2ccc(Cl)cc21 [LDN-57444] | -16.75 | – | –
COc1ccc(O)cc1 [Leucobasal] | – | -15.3 | –
CC(=O)[C@H]1CC[C@H]2[C@@H]3C[C@H](C)C4=CC(=O)CC[C@]4(C)[C@H]3[C@@H](O)C[C@]12C [Medrysone] | – | -8.83 | –
C[C@H]1C[C@@H]2[C@H]([C@@H](O)C[C@@]3(C)[C@H]2CC[C@]3(O)C(=O)COC(=O)CCC(=O)[O-])[C@@]2(C)C=CC(=O)C=C12.[Na+] [Methylprodnisolone Sodium Succinate] | -78.62 | – | –

Molecule | JOSD2 Activity Inhibition (%) (GST-JOSD2) | inhibition at 2 µM (GST-JOSD2) [%] | further results
CC(C)(C(=O)c1cccnc1)c1cccnc1 [Metyrapone] | – | -6.94 | –
CCOC(=O)[N-]c1cn(N2CCOCC2)n[o+]1 [Molsidomine] | – | 35.8 | –
CC(CCc1ccccc1)NC(C)C(O)c1ccc(O)cc1 (stereo not drawn) [Nylidrin hydrochloride] | – | -31.9 | –
N#CSc1cc(SC#N)c(N)nc1N [PR-619, reference compound] | 42.70 | – | JOSD2 activity inhibition ratio (GST-JOSD2): 42.70%
COc1ccc(Cc2nccc3cc(OC)c(OC)cc23)cc1OC [Papaverine hydrochloride] | – | -27.9 | –
C#CCN(C)Cc1ccccc1 [Pargyline] | – | 29.8 | –
CCc1ccc(CCOc2ccc(CC3SC(=O)NC3=O)cc2)nc1 (stereo not drawn) [Pioglitazone hydrochloride] | – | -5 | –
CC(C(=O)O)c1ccc2c(c1)Cc1cccnc1O2 (stereo not drawn) [Pranoprofen] | – | -2.73 | –
C[C@]12C=CC(=O)C=C1CC[C@@H]1[C@@H]2[C@@H](O)C[C@@]2(C)[C@H]1CC[C@]2(O)C(=O)COP(=O)([O-])[O-].[Na+].[Na+] [Prednisolone phosphate sodium] | 36.74 | – | –
CCN(CC)CCNC(=O)c1ccc(N)cc1 [Procainamide hydrochloride] | – | -20.4 | –
C#CCN[C@@H]1CCc2ccccc21 [Rasagiline] | – | 29 | –
O=P(O)(O)C(O)(Cc1cccnc1)P(=O)(O)O [Risedronate Sodium] | – | 4.34 | –
CC(=O)OCC(=O)NCCCOc1cccc(CN2CCCCC2)c1 [Roxatidine Acetate hydrochloride] | – | -20.8 | –
O=C1c2ccccc2C(=O)c2oc(-c3ccccc3)nc21 [SJB2-043] | 13.43 | – | –
O=C1c2ccccc2C(=O)c2oc(-c3cccnc3)nc21 [SJB3-019A] | 42.78 | – | –
CCCSc1nc(N[C@@H]2C[C@H]2c2ccc(F)c(F)c2)c2nnn([C@@H]3C[C@H](OCCO)[C@@H](O)[C@H]3O)c2n1 [Ticagrelor] | – | 23.1 | –
O=C(CCc1ccccc1)N1CCC(O)(Cn2cnc3cc(Cl)ccc3c2=O)CC1 [USP7-IN-1] | -29.77 | – | –
O=C1/C(=C/c2ccc([N+](=O)[O-])cc2)CS(=O)(=O)C/C1=C\c1ccc([N+](=O)[O-])cc1 [Ubiquitin Isopeptidase Inhibitor I] | 1.00 | – | –
C=CC(N)CCC(=O)O.Cl (stereo not drawn) [Vigabatrin Hydrochloride] | -16.37 | – | –
HBX 19818 | -0.37 | – | –
Tyloxapol | 29.65 | – | –
shJOSD2#1: gene-specific shRNA targeting JOSD2, GCAACTATGATGTCAATGTGA, delivered by lentiviral vector (lentiviral shRNA) | – | – | Inhibition ratio (PDX LUAD 083120 (Case 2)): 52.24%; T/C (PDX LUAD 083120 (Case 2)): 64.34%; Tumor Weight (PDX LUAD 083120 (Case 2); at the endpoint): 0.08 ± 0.02 g; RTV (PDX LUAD 083120 (Case 2); intratumor injection): 2.73 ± 0.63; Inhibition ratio (PDX LUAD 110519 (Case 1)): 64.73%; T/C (PDX LUAD 110519 (Case 1)): 37.84%; Tumor Weight (PDX LUAD 110519 (Case 1); at the endpoint): 0.14 ± 0.07 g; RTV (PDX LUAD 110519 (Case 1); intratumor injection): 3.20 ± 1.37
